Data as given in publication PMC10783034, “Pharmacokinetic and pharmacodynamic evaluation of the atypical tetracyclines chelocardin and amidochelocardin in murine infection models” (Microbiology Spectrum, 2023).
Converted amounts (≈) assume the structure as drawn. “And” between values parts separate entries of the source, which are not always exact repeats. Equal values may be shown once. “Also recorded” adds a separate entry of the source. Read-outs that look alike come from different tables or passages of the source.

Key:
E. coli ATCC 25922 [1] = test system: E. coli ATCC 25922; set-up: method as in PMID 32962088; settings: cited from earlier work
K. pneumoniae ATCC 43816 = test system: K. pneumoniae ATCC 43816; set-up: method as in PMID 32962088; settings: cited from earlier work
[2] = Histopathological analysis of kidneys and livers after high-dose IV administration; format: in vivo, mice; settings: 30 mg/kg IV; for histopathological examination of liver / kidney tissue discoloration: 24 hours after treatment; for overall acute toxicity assessment: high-dose groups
Procedure: The sustained high urine concentrations observed for CDCHD at 15 mg/kg IV raised the concern that accumulation might occur. We therefore performed histopathological analysis of livers and kidneys. A dose of 30 mg/kg of CHD and CDCHD was administered intravenously, and livers and kidneys were examined 24 hours after treatment to investigate signs of acute toxicity.
CHD and CDCHD were administered in single PK studies at the doses of 15 mg/kg and 30 mg/kg IV, at 15 mg/kg SC, and 15 mg/kg PO. Up to 25 µL of blood was collected from the lateral tail vein (n = 3 per time point) and time points t = 0.5, 1, 2, 4, and 8 hours. For 15 mg/kg IV- and PO-administered compounds, blood was also collected at time points t = 24 and 48 hours. For IV- and SC-administered compounds, blood was also collected at t = 0.25 hours. At t = 24 hours (15 mg/kg SC, 30 mg/kg IV) or 72 hours (15 mg/kg IV and PO), animals were euthanized to collect blood. At every blood collection, time point spontaneous urine was collected as well. Whole blood was collected into Eppendorf tubes coated with 0.5 M EDTA and immediately spun down at 15,870× g for 10 min at 4°C. Then, plasma was transferred into a new Eppendorf tube and stored at −80°C until analysis.
(§1) Approximately 3 µm thick sections of formalin-fixed, paraffin-embedded samples of liver and kidney were analyzed blinded, and randomized to the experimental groups by a trained veterinarian. […] Kidneys were analyzed for changes in the glomeruli (not found), tubular dilation (1 = mild or up to 20% of tubuli affected, 2 = moderate or 25-40% of tubuli affected, 3 = severe 50% or more), and inflammatory infiltrate in the pelvis (1 = mild, 2 = moderate, 3 = severe).

[3] = Histopathological analysis of kidneys and bladder in the ascending urinary tract infection model (satellite groups); format: in vivo, mice; set-up: key to histopathological score Pelvis: 1 = mild; 2 = moderate; 3 = severe; histopathological score Papilla / histopathological score Bladder: scale not given here; settings: for histopathological findings in bladder / histopathological findings in kidneys: infected mice, CHD/CDCHD 12 mg/kg SC BID, gentamicin 100 mg/kg SC BID
Procedure: The model was conducted as described previously ([27], [60]). In brief, n = 21 animals were used per group in the main study, and n = 3 animals per group in satellite groups for histopathological analysis. Three days before the start of the study and during the study, mice had free access to 5% glucose as drinking water. Fresh overnight colonies of E. coli from a 5% horse blood agar plate were suspended in PBS pH 7.4 to approximately 10^9 cfu/mL. Approximately 1 hour before inoculation, mice were treated orally with […] Nurofen (20 mg ibuprofen/mL corresponding to approximately 30 mg/kg) as a pain relief. Urine was removed from the bladder by gently pressing the abdomen and mice were anaesthetized with 0.15 mL Zoletil mix SC. Thereafter, the mice were inoculated. A syringe with a catheter, containing the bacterial suspension was inserted via the urethra into the bladder and 50 µL of the inoculum was slowly injected into the bladder. Hereafter, the mouse was placed in the cage and kept in a warming cabinet until fully awake (approximately 4 hours). The mice were treated with CHD (12 mg/kg SC BID), CDCHD (12 mg/kg SC BID), gentamicin (100 mg/kg SC BID), or vehicle BID (2nd dose was administered approximately 6 hours after the 1st dose on each day) on day 1, that is, first dose around 24 hours post-infection, and day 2 post-inoculation. The mice were observed during the study and scored based on their behavior and clinical signs. Clinical scoring comprised assessment of piloerection in the skin, activity (movement, curiosity), and appearance of eyes. The scoring range comprised 0–4. In our model, a maximum score of 1; thus, only mild discomfort was observed. On day 3 post-inoculation and after sampling urine, mice were euthanized by cervical dislocation, and bladder and kidneys were removed from 21 mice in each treatment group aseptically for cfu determination. The bladder and kidneys were stored at −80°C and later homogenized in 0.5 or 1 mL saline, respectively. Colony counts of urine were determined immediately. From the three additional mice in each treatment group (satellite groups), urine and plasma were sampled and frozen at −80°C, and bladders, kidneys, and liver were collected in 4% buffered formalin. Cfu was determined in urine samples within 2–3 hours after sampling. Frozen organs were thawed and homogenized with steel beads using a tissue lyser. All samples, urine, kidney, and bladder, were 10-fold diluted in saline and 20 µL spots were applied on blue agar plates in duplicates. In addition, undiluted samples of urine (2–100 μL depending on the available amount of urine) were spread on a separate agar plate to determine the colony counts at the lowest possible detection level. All agar plates were incubated for 18–22 hours at 35°C in ambient air.
as §1

A. baumannii DSM-30008 = experiment: MIC determination; format: cell-based; settings: MHB medium
Procedure: (§2) The assay was conducted as described previously ([54]) with the following modifications. The MIC was tested against the K. pneumoniae strain ATCC 43816 in an MHB (not cation-adjusted) medium. CHD and CDCHD were tested in concentrations ranging from 0.078 to 10 µg/mL. Moreover, the MIC was determined for the following strains: K. pneumoniae DSM-30104, E. faecium DSM-20477, S. aureus DSM-346, P. aeruginosa DSM-11128, A. baumannii DSM-30008, E. aerogenes DSM-30053, E. coli ATCC 25922, and E. coli C175-94. All strains were grown in MHB medium, except for E. faecium, which was grown in TSB. CHD, epi-CDH, and CDCHD were tested in concentrations ranging from 0.125 to 64 µg/mL as described previously ([19]).

K. pneumoniae DSM-30104 = experiment: MIC determination; format: cell-based; settings: MHB medium
Procedure: as §2

P. aeruginosa DSM-11128 = experiment: MIC determination; format: cell-based; settings: MHB medium
Procedure: as §2

E. coli ATCC 25922 [4] = experiment: MIC determination; format: cell-based; settings: MHB medium
Procedure: as §2

S. aureus DSM-346 = experiment: MIC determination; format: cell-based; settings: MHB medium
Procedure: as §2

E. coli C175-94 = experiment: MIC determination; format: cell-based; settings: MHB medium
Procedure: as §2

| SMILES | MIC (E. coli ATCC 25922 [1]) | minimal bactericidal concentration (MBC) (K. pneumoniae ATCC 43816) | histopathological examination of liver [2] | kidney tissue discoloration [2] | overall acute toxicity assessment [2] | histopathological score Glomeruli ([3]; animal No. 1) | histopathological score Papilla ([3]; animal No. 1) | histopathological score Pelvis ([3]; animal No. 1) | histopathological score Tubuli ([3]; animal No. 1) | histopathological score Bladder ([3]; animal No. 2) | histopathological score Glomeruli ([3]; animal No. 2) | histopathological score Papilla ([3]; animal No. 2) | histopathological score Pelvis ([3]; animal No. 2) | histopathological score Tubuli ([3]; animal No. 2) | histopathological score Bladder ([3]; animal No. 3) | histopathological score Glomeruli ([3]; animal No. 3) | histopathological score Papilla ([3]; animal No. 3) | histopathological score Pelvis ([3]; animal No. 3) | histopathological score Tubuli ([3]; animal No. 3) | histopathological findings in bladder [3] | further results |
| --- | --- | --- | --- | --- | --- | --- | --- | --- | --- | --- | --- | --- | --- | --- | --- | --- | --- | --- | --- | --- | --- |
| Cc1ccc2c(C)c3c(c(O)c2c1O)C(=O)C1(O)C(=O)C(C(N)=O)=C(O)C(N)C1C3 (stereo not shown) [CDCHD, 2-carboxamido-2-deacetyl-chelocardin] | 2 mg/L (≈ 4.85 µM) | 8 mg/L (≈ 19.4 µM) | sporadic extramedullary erythropoiesis and thrombopoiesis; also recorded: a moderate reduction of glycogen, moderate anisokaryosis, and a moderate amount of double-nucleated cells | yellow tissue discoloration | no immediate toxicity red flags | 0 | 0 | 0 | 2 (2 = moderate or 25-40% of tubuli affected) | 0 | 0 | 0 | 1 | 2 (2 = moderate or 25-40% of tubuli affected) | 0 | 0 | 1 | 0 | 1 (1 = mild or up to 20% of tubuli affected) | did not show any significant alterations | histopathological score Bladder ([3]; animal No. 1): 0; histopathological findings in kidneys [3]: a moderate tubulus dilation (resulting in moderate or 20%–40% of tubuli affected) and protein casts; MIC (A. baumannii DSM-30008): 8 mg/L (≈ 19.4 µM); MIC (K. pneumoniae DSM-30104): 1 mg/L (≈ 2.42 µM); MIC (P. aeruginosa DSM-11128): 16 mg/L (≈ 38.8 µM); MIC (E. coli ATCC 25922 [4]): 2 µg/ml and ~ 2 µg/ml; MIC (S. aureus DSM-346): 2 mg/L (≈ 4.85 µM); MIC (E. coli C175-94): 2 to 4 mg/L |
| CC(=O)C1=C(O)[C@H](N)[C@@H]2Cc3c(c(O)c4c(O)c(C)ccc4c3C)C(=O)[C@]2(O)C1=O [CHD, chelocardin] | 2 mg/L (≈ 4.86 µM) | 16 mg/L (≈ 38.9 µM) | sporadic extramedullary erythropoiesis and thrombopoiesis | yellow tissue discoloration | no immediate toxicity red flags | 0 | 2 | 0 | 3 (3 = severe 50% or more) | - 1 1 | 0 | 2 | 1 | 3 (3 = severe 50% or more) | - 1 1 | 0 | 0 | 2 | 1 (1 = mild or up to 20% of tubuli affected) | mild, focal, submucosal inflammatory aggregates | histopathological findings in kidneys [3]: moderate tubulus degeneration with vacuolated cytoplasm, accumulation of hyaline droplets, protein casts, and a mild to moderate accumulation of inflammatory cells; MIC (A. baumannii DSM-30008): 16 mg/L (≈ 38.9 µM); MIC (K. pneumoniae DSM-30104): 2 to 4 mg/L; MIC (P. aeruginosa DSM-11128): > 64 mg/L; MIC (E. coli ATCC 25922 [4]): 2 µg/ml and ~ 2 µg/ml; MIC (S. aureus DSM-346): 4 mg/L (≈ 9.72 µM); MIC (E. coli C175-94): 2 mg/L (≈ 4.86 µM) |
